Laboratory results as given in publication PMC4184853, “Biohybrid Polymer-Antimicrobial Peptide Medium against Enterococcus faecalis” (PLoS ONE, 2014).
Where two headings read alike, the source gives them in different places. Each block holds one compound with its values, some of them ahead of it. Non-standard residues stand in square brackets, D forms with d. Residues, ends and D or L forms follow the SMILES beside them. *: point of attachment. Palmitoyl = CCCCCCCCCCCCCCCC(=O)*

What was measured:
Assay type in all cases: cell-based, Enterococcus faecalis
[1] = tested on: E. faecalis (ATCC #v583)
Description: (§1) E. faecalis (ATCC #v583), was cultured overnight in 5 ml brain-heart infusion (BHI) (Difco, Detroit, MI, USA) broth supplemented with 2 mg/ml vancomycin (Sigma-Aldrich), at 37°C under aerobic conditions. The top 4 ml were transferred to a fresh test tube and the optical density (OD) was determined according to the specific experiment.
(§2) The antibacterial activity of the peptides was examined using the microdilution assay. Briefly, the bacterial suspension (at OD 0.3) was diluted at a ratio of 1∶1000. Aliquots of 150 µl of bacterial suspension were added to 50 µl of peptide dilutions in phosphate buffered saline (PBS) (Sigma-Aldrich) (in triplicate for each concentration) in a 96-well plate (Nunc 96 microtiter plates, Roskilde, Denmark). The optical density (595 nm) in each well was recorded every 20 min using a microplate reader (VERSAmax tunable microplate reader, molecular devices, Sunnyvale, CA, USA) at 37°C for 18–24 hrs. The minimal inhibitory concentration (MIC) was determined as the concentration which inhibited visible growth after 18–24 hrs.

[2] = tested on: E. faecalis biofilm; experiment: Bacterial vitality in biofilm, live/dead staining with confocal microscopy; conditions: 72 hrs contact during biofilm formation
Description: (§3) Antibiofilm activity was tested on E. faecalis biofilms grown for 72 hrs. Biofilm was formed in microtiter plates (24 well plates for the ATP bioluminescence assay and 96 well plates for the crystal violet biomass assay and confocal laser spectroscopy). Saliva was collected from one donor and DL-Dithiolthreitol (DTT) (Thermo Scientific, Abu-Gosh, Israel) was added to 2.5 mM. The suspension was kept at 4°C for 10 min and then centrifuged for 15 min at 6,500×g. The supernatant was transferred to a fresh sterile tube and diluted to 25% with sterile double distilled water (DDW). The diluted saliva was disinfected using a 0.2 µm vacuum-driven filter (0.22 µm, […], Jet biofil, Belgium). […] Bacterial metabolism in the attached biofilm was assessed using ATP bioluminescence. Biofilm mass was measured using crystal violet as described below.
Confocal laser scanning microscopy (CLSM) was used to explore the vitality of bacteria in the different depth layers of the biofilm. […] To read the results directly, the wells were coated with emulsion oil to prevent dehydration. Fluorescence emission was detected using a Zeiss LSM 410 confocal laser scanning microscope (Carl Zeiss Microscopy, Jena, Germany). Red fluorescence was measured at 630 nm and green fluorescence at 520 nm; objective lenses: x60/oil, 1.4 numerical aperture. […]

[3] = tested on: E. faecalis biofilm; experiment: Antibiofilm activity, ATP bioluminescence; conditions: biofilm exposed 72 hrs, 24 well plates; compared with untreated E. faecalis
Description: as §3
Bacterial killing was evaluated by measuring intracellular ATP levels, an energy parameter commonly used as an indicator of cell injury and viability. […] ATP levels were determined using an ATP bioluminescence assay kit (CLS 2, Roch Diagnostics, Mannheim, Germany). In a 96 microtiter plate designed for luminescence assay (Thermo Scientific, NUNC, 96-well optical Btm Plt white, Rochester, NY, USA) a 100 µl volume of the samples was added to 6 wells for each tested group. […]

[4] = tested on: E. faecalis (ATCC #v583); experiment: Growth curves with soluble peptide: percent growth reduction and generation time; conditions: concentrations below 5 µg/ml
Description: as §1
as §2, with “Aliquots of 150 µl of bacterial suspension were added to 50 µl of peptide dilutions in phosphate buffered saline (PBS) (Sigma-Aldrich) (in triplicate for each concentration) in a 96-well plate (Nunc 96 microtiter plates, Roskilde, Denmark).” left out
The presented data are the mean and standard deviation of triplicates of a representative experiment repeated three times. The growth mean, and multiple comparisons of growth inhibition by AMP (compared with the growth of untreated bacteria) were calculated from each growth curve using Student’s t-test. […]
Figure 1 E. faecalis growth is inhibited by C16-KGGK but not by hBD3. Growth of E. faecalis was measured (see Materials and Methods) in the presence of increasing concentrations of hBD3 (A) or of the lipopeptide KGGK (B). […]

[5] = tested on: E. faecalis biofilms; experiment: Antibiofilm activity, crystal violet biomass assay; conditions: biofilm grown 72 hrs in saliva-coated 96 well plates in presence of test material
Description: as §3
The total biofilm yield was assessed using crystal violet staining as follows. […] The acetic acid was transferred to wells of a new 96-well microtiter plate that was placed in a microplate reader and absorbance (OD595 nm) was measured.
Figure 3 Effect of the antimicrobial peptides on the development of E. faecalis biofilms. […] The biofilm was stained with 1% crystal violet measured at OD 595 nm (see Materials and Methods). […]

MIC ([1]; ATCC #v583): >25 µg/mL
Compound: CC(C)C[C@H](NC(=O)[C@H](CC(C)C)NC(=O)[C@@H](CCCCN)NC(=O)[C@H](CC(C)C)NC(=O)[C@H](CC(C)C)NC(=O)[C@H](CCCCN)NC(=O)[C@@H](CCCCN)NC(=O)[C@@H](CC(C)C)NC(=O)[C@H](CC(C)C)NC(=O)[C@@H](CCCCN)NC(=O)[C@H](CCCCN)NC(=O)[C@H](CC(C)C)NC(=O)[C@@H](CC(C)C)NC(=O)[C@H](CCCCN)NC(=O)[C@@H](N)CC(C)C)C(N)=O [Amp-1D] (H-LK[dL]LK[dK]L[dL][dK]KLL[dK]LL-NH2; N-terminus assumed)

MIC ([1]; ATCC #v583): 12.5 to 25 µg/mL
Compound: CCCCCCCCCCCCCCCC(=O)N[C@@H](CCCCN)C(=O)N[C@@H](C)C(=O)N[C@@H](C)C(=O)N[C@@H](CCCCN)C(N)=O [C16-KAAK] (Palmitoyl-KAAK-NH2)

MIC ([1]; ATCC #v583): 4 to 5 µg/mL
Compound: CCCCCCCCCCCCCCCC(=O)N[C@@H](CCCCN)C(=O)NCC(=O)NCC(=O)N[C@@H](CCCCN)C(N)=O [C16-KGGK] (Palmitoyl-KGGK-NH2)
vitality of biofilm bacteria (live/dead stain, CLSM) [2]: induced death in the biofilm bacteria
ATP levels in biofilm (luminescence) [3]: relatively low compared with that in the untreated control
growth of E. faecalis at sub-inhibitory concentrations [4]: accelerated
concentration causing complete growth inhibition ([1]; planktonic E. faecalis, microdilution, 18–24 hrs): 5 µg/mL

MIC ([1]; ATCC #v583): 6 to 12.5 µg/mL
Compound: CCCCCCCCCCCCCCCC(=O)N[C@@H](CCCCN)C(=O)N[C@@H](CCCCN)C(=O)N[C@@H](CCCCN)C(N)=O [C16-KKK]
anti-biofilm effect (biofilm mass, crystal violet, OD 595 nm) [5]: showed anti-biofilm activity

MIC ([1]; ATCC #v583): 6 to 12.5 µg/mL
Compound: CCCCCCCCCCCCCCCC(=O)N[C@@H](CCCCN)C(=O)N[C@@H](CC(C)C)C(=O)N[C@@H](CC(C)C)C(=O)N[C@@H](CCCCN)C(N)=O [C16-KLLK] (Palmitoyl-KLLK-NH2)

MIC ([1]; planktonic E. faecalis ATCC v583, BHI, 37°C, 18–24 hrs, OD 595 nm, triplicate per concentration): > 20 µg/mL
Compound: GIINTLQKYYCRVRGGRCAVLSCLPKEEQIGKCSTRGRKCCRRKK [hBD3, Human recombinant β-defensin 3 obtained from PeproTech, reference compound]
